Measured values from paper PMC11323243, “Novel Inhibitors of SARS-CoV-2 RNA Identified through Virtual Screening” (Journal of Chemical Information and Modeling, 2024).
“Also recorded” adds a separate entry of the source.

What was measured:
[1] = Cell viability (MTT) after 3 days of exposure; assay type: cell-based; conditions: African green monkey, Vero E6 cells, read-out: CC50, concentration reducing cell viability by 50%
[2] = test system: Omicron (BA.1) SARS-CoV-2; experiment: Antiviral activity, plaque reduction assay on Vero E6 cells; assay type: cell-based; conditions: CC50/EC50, Vero E6 cells
[3] = test system: −1PRF element of SARS-CoV-2; experiment: Dual-luciferase assay measuring frameshift efficiency; assay type: cell-based; conditions: Vero E6 cells; for effect on frameshift efficiency (in words): dual-luciferase assay; for reduction of frameshift efficiency: single nontoxic dose
[4] = test system: −1PRF element of SARS-CoV-2; conditions: previously identified; cited from earlier work

SMILES | CC50 at 3 days [1] | SI, selective index [2] | effect on frameshift efficiency (in words) [3] | further results
NCCc1ccc(CN2CCC(O)(c3cccc(C(F)(F)F)c3)CC2)cc1 [Compound 188] | 80.6 µM | 4.69 | – | –
Cc1cc2c(cc1CN1CC(CO)C(CN3CCCCCC3)C1)OCCO2 (centres unmarked) [Compound 194] | > 100 µM | >3.46 | significant reduction in frameshift efficiency | reduction of frameshift efficiency [3]: 23%
OC1CN(Cc2cccc3cc[nH]c23)CCN(c2ccncc2)C1 (centres unmarked) [Compound 229] | 93 µM | 3.47 | – | –
OCC1CN(Cc2cc3c(cc2Cl)OCO3)CC1CN1CCCCCC1 (centres unmarked) [Compound 269] | – | – | nonsignificant reduction of frameshift efficiency; also recorded: reduction in frameshift, though not statistically significant | –
Cc1cc2c(cc1CN1CC(CO)C(CN3CCN(C)CC3)C1)OCCO2 (centres unmarked) [Compound 782] | – | – | significant and improved reduction of frameshift efficiency compared to 194; also recorded: dose-dependent | reduction of frameshift efficiency [3]: 38%
OC1CCCN(C2CCN(Cc3ncc[nH]3)CC2)C1 (centres unmarked) [Compound 21256088] | > 100 µM | – | – | –
Cc1nc(CN)cc(N2CCC(C(O)c3nccn3C)CC2)n1 (centres unmarked) [Compound 32807865] | > 100 µM | – | – | –
CN[C@@H]1[C@@H](O)[C@@H](O[C@@H]2[C@@H](O)[C@H](O[C@H]3O[C@H]([C@@H](C)O)[C@@H](O)[C@H](O)[C@H]3N)[C@@H](N)C[C@H]2N)OC[C@]1(C)O [geneticin] | – | – | – | inhibition of the −1PRF of SARS-CoV-2 (in words) [4]: specific inhibition of the −1PRF of SARS-CoV-2
CCNCC1CCN(c2c(F)cc3c(=O)c(C(=O)O)cn(CC)c3c2F)C1 (centres unmarked) [merafloxacin] | – | – | – | inhibition of the −1PRF of SARS-CoV-2 (in words) [4]: specific inhibition of the −1PRF of SARS-CoV-2
Clc1ccc2c(N3CCN(CCCN4CCN(c5ccnc6cc(Cl)ccc56)CC4)CC3)ccnc2c1 [piperaquine, reference compound] | 5.66 µM | 0.49 | – | –
